The values that follow come from ChEMBL document CHEMBL3352793, “Discovery of pyrrolo-benzo-1,4-diazines as potent Na(v)1.7 sodium channel blockers” (Bioorg Med Chem Lett, 2014).

One series in a line: in vivo. The following applies: rat, po, 10 mg/kg.
A further series has as its system Brain. As to the kind of experiment: Drug uptake in rat brain at 10 mg/kg, po. The class given is ADME, organism-based. Also on record: dose 10 mg/kg, route oral. Particulars: in vivo.
Series [1] is described as follows: AUC (0 to 24 hrs) in rat at 3 mg/kg, iv. The class given is ADME, organism-based. Details: time < 24 hr, dose 3 mg/kg, route intravenous. Particulars: plasma.
Series [2] in a line: AUC (0 to 24 hrs) in rat at 10 mg/kg, po. The class given is ADME, organism-based. Also on record: time < 24 hr, dose 10 mg/kg, route oral. Particulars: plasma.
Series [3] in a line: Terminal half life in rat at 3 mg/kg, iv. The class given is ADME, organism-based. Also on record: dose 3 mg/kg, route intravenous. The following applies: in vivo, read-out: beta t1/2 (converted).
The nature of series [4]: Oral bioavailability in rat at 10 mg/kg. The class given is ADME, organism-based. The following applies: in vivo.
The nature of series [5]: Mean residence time in rat at 3 mg/kg, iv. The class given is ADME, organism-based. Also on record: dose 3 mg/kg, route intravenous. Particulars: in vivo.
Series [6] in a line: Mean residence time in rat at 10 mg/kg, po. Particulars: in vivo. Details: dose 10 mg/kg, route oral. The class given is ADME, organism-based.
A short description of series [7]: Cmax in rat at 10 mg/kg, po. The class given is ADME, organism-based. Details: dose 10 mg/kg, route oral. Particulars: in vivo.
Series [8] is described as follows: Tmax in rat at 10 mg/kg, po. The class given is ADME, organism-based. Details: dose 10 mg/kg, route oral. Particulars: in vivo.
The nature of series [9]: Clearance in rat at 3 mg/kg, iv. The class given is ADME, organism-based. Also on record: dose 3 mg/kg, route intravenous. Particulars: in vivo.
The nature of series [10]: Volume of distribution at steady state in rat at 3 mg/kg, iv. The class given is ADME, organism-based. Also on record: dose 3 mg/kg, route intravenous. Particulars: in vivo, read-out: Vdss.
The species entered for the next series is Rattus norvegicus. The following applies: in vivo, po, 10 mg/kg, 6 h.

The term AUC(0-t) denotes the area under the concentration-time curve up to a stated or last time point. A lower AUC(0-t) goes with less exposure. As a reminder, the bioavailability is the share of a dose that reaches the circulation, judged against a reference dose that is usually intravenous. High values mean much systemic uptake, low ones little systemic uptake. As a reminder, the MRT is a mean duration of stay, worked out from the concentration-time curve. The Cmax is the maximum level reached in the sampled fluid or tissue. The Tmax is the time from dosing to the highest level. One may read the clearance as the volume of plasma or blood freed of the substance per unit of time. A high value points to efficient removal. By AUC is commonly meant the area under the concentration-time curve, a measure of exposure. High values mean high exposure, low ones low exposure.

In the case of `CN(C)c1cccc(C(=O)N2CCC3(CC2)Nc2ccccc2-n2cccc23)c1`, the AUC(0-t) at 6 h in the series “in vivo” (in vivo) turned out to be 0.633 µM·h. Turning to `COc1ccc2c(c1)NC1(CCN(C(=O)c3ccc(N(C)C)cc3)CC1)c1cccn1-2`, the AUC(0-t) at 6 h in the series “in vivo” (in vivo) turned out to be 9.44 µM·h. Still for that read-out and setting: as for `COc1ccc2c(c1)NC1(CCN(C(=O)c3ccc(Cl)cc3)CC1)c1cccn1-2`, the figure is 1.96 µM·h; as for `N#Cc1ccc(C(=O)N2CCC3(CC2)Nc2ccccc2-n2cccc23)cc1`, 1.01 µM·h; as for `N#Cc1ccc(C(=O)N2CCC3(CC2)Nc2cc(C(F)(F)F)ccc2-n2cccc23)cc1`, 15.2 µM·h. On the same count and under the same terms, as for `COc1ccc2c(c1)NC1(CCN(C(=O)c3cc(C)cc(C)c3)CC1)c1cccn1-2`, the figure is 0.788 µM·h. In the series on Brain, `COc1ccc2c(c1)NC1(CCN(C(=O)c3ccc(OC)c(N(C)C)c3)CC1)c1cccn1-2` registered a Drug uptake of 257 ng/g. Also, the AUC(0-t) at 24 h in series [1] is 17.4 µM·h; in series [2], 65.9 µM·h. Besides, the half-life in series [3] was 2.9 h. In series [4], this compound yielded a bioavailability of 100%. The MRT in series [5] came to 3 h; in series [6], 4.7 h. This compound also returned a Cmax in series [7] of 9.3 µM. In addition, the Tmax in [8] came to 1.3 h. Further, the clearance in series [9] was 6.5 mL/min/kg. For the same compound, in series [10], the Vd turned out to be 1.2 L/kg. In “in vivo” (plasma), this compound yielded an AUC(0-t) at 6 h of 20.3 µM·h.

Compound `N#Cc1ccc(C(=O)N2CCC3(CC2)Nc2ccc(Cl)cc2-n2cccc23)cc1` showed an exposure AUC(0-t) at 6 h in the series “in vivo” (in vivo) of 26.1 µM·h. The same measure, in the same setting: as for `COc1ccc2c(c1)NC1(CCN(C(=O)OCc3ccccc3)CC1)c1cccn1-2`, the figure is 13.1 µM·h; as for `COc1ccc2c(c1)NC1(CCN(C(=O)c3ccc(N(C)C)c(Cl)c3)CC1)c1cccn1-2`, 1.27 µM·h. In turn, `COc1ccc2c(c1)NC1(CCN(C(=O)c3cccc(C)c3)CC1)c1cccn1-2` yielded an AUC in the series listed under Rattus norvegicus of 0 µM·h.

Compound `COc1ccc2c(c1)NC1(CCN(C(=O)c3ccc(C)cc3)CC1)c1cccn1-2` had an AUC(0-t) at 6 h in “in vivo” (in vivo) of 17.2 µM·h.

Turning to `N#Cc1ccc(C(=O)N2CCC3(CC2)Nc2cc(Cl)ccc2-n2cccc23)cc1`, the AUC(0-t) at 6 h in “in vivo” (in vivo) came out at 2.9 µM·h.

In turn, `N#Cc1ccc(C(=O)N2CCC3(CC2)Nc2cc(OC(F)(F)F)ccc2-n2cccc23)cc1` yielded an AUC(0-t) at 6 h in “in vivo” (in vivo) of 11.7 µM·h. For the compound `COc1cccc(C(=O)N2CCC3(CC2)Nc2cc(OC)ccc2-n2cccc23)c1`, in the series listed under Rattus norvegicus, the AUC turned out to be 0 µM·h.

On to `COc1ccc2c(c1)NC1(CCN(C(=O)c3cccc(Cl)c3)CC1)c1cccn1-2`, for which the AUC in the series listed under Rattus norvegicus is 0 µM·h. Still for that read-out and setting: then `COc1ccc2c(c1)NC1(CCN(C(=O)c3ccccc3OC)CC1)c1cccn1-2`, with 0 µM·h. In turn, `N#Cc1ccc(C(=O)N2CCC3(CC2)Nc2ccc(F)cc2-n2cccc23)cc1` returned an AUC(0-t) at 6 h in “in vivo” (in vivo) of 12 µM·h. Still for that read-out and setting: then `COc1ccc2c(c1)NC1(CCN(Cc3ccccc3)CC1)c1cccn1-2`, with 0.37 µM·h. For `COc1ccc2c(c1)NC1(CCN(C(=O)c3ccc(C#N)c(OC)c3)CC1)c1cccn1-2`, in “in vivo” (in vivo), the AUC(0-t) at 6 h was found to be 26.6 µM·h.

As to `COc1ccc(C(=O)N2CCC3(CC2)Nc2cc(OC)ccc2-n2cccc23)cc1`, in the series “in vivo” (in vivo), the area under the curve AUC(0-t) at 6 h is 91.5 µM·h. This AUC(0-t) at 6 h lies about 3.4-fold higher than the previous one.

In turn, `COc1ccc2c(c1)NC1(CCN(C(=O)c3ccc(C#N)cc3)CC1)c1cccn1-2` returned an AUC(0-t) at 6 h in the series “in vivo” (in vivo) of 51.1 µM·h. Still for that read-out and setting: then `COc1ccc2c(c1)NC1(CCN(C(=O)c3ccc(OC)c(Cl)c3)CC1)c1cccn1-2`, with 6.81 µM·h; and `COc1ccc2c(c1)NC1(CCN(C(=O)c3cccc(C#N)c3)CC1)c1cccn1-2`, with 0.783 µM·h. The compound `Cc1cc(C)cc(C(=O)N2CCC3(CC2)Nc2ccccc2-n2cccc23)c1` registered an AUC in the series filed under Rattus norvegicus of 0 µM·h. In the case of `N#Cc1ccc(C(=O)N2CCC3(CC2)Nc2ccc(Br)cc2-n2cccc23)cc1`, the AUC(0-t) at 6 h in the series “in vivo” (in vivo) stood at 23.4 µM·h.
